According to paper PMC7263498 (bioRxiv, 2020):

Molecular target: M^Pro (SARS-CoV-2 main protease) (Severe acute respiratory syndrome coronavirus 2, UniProt P0DTD1)
Assay: FRET peptide
Assay type: biochemical

For `CN1CCN(CC(=O)N2c3ccccc3C(=O)Nc3cccnc32)CC1` [Pirenzepine], which “% activation at 1 mM” value is on record?
Its value is over 15%.
